Experimental data published in US9708314B2, “Heterocyclic amide compound” (NISSAN CHEMICAL INDUSTRIES, LTD., priority 2013, dated 2017).

How the values were obtained:
Assay type in all cases: in vivo
Scirpus juncoides = test: Test Example 2: herbicidal activity, application during weed generation in submerged conditions; settings: Eighteenth Table; application herbicide amount 320 g/ha
Procedure, shortened: (§1)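 Paddy-type pot test: flooded soil, 4 cm depth, greenhouse 25–30 °C. Emulsion formulation diluted in water, applied to water surface at 1–2 leaf stage; rate expressed as g/ha. Read-out at 3 wk, 0–5 score.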

[1] = tested on: Echinochloa oryzacola Vasing.; test: as above; settings: Eighteenth Table; application herbicide amount 320 g/ha
Procedure, shortened: as §1

Monochoria vaginalis = test: as above; settings: Eighteenth Table; application herbicide amount 320 g/ha
Procedure, shortened: as §1

Chenopodium album = test: Test Example 4: herbicidal effect by application to foliage (diluvial soil, plastic box); settings: foliage application, 320 g/ha
Procedure, shortened: (§2)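 Read-out is a 0–5 visual grade of herbicidal ratio (5: ≥90%, almost withered; 0: ≤5%) taken three weeks after treatment. Compound was applied as a diluted emulsion to stem and leaf parts of 14-day greenhouse-grown plants (25° C. to 30° C.) at rates expressed as g/ha.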

Galium spurium = test: as above; settings: foliage application, 320 g/ha
Procedure, shortened: as §2

Alopecurus myosuroides = test: as above; settings: foliage application, 320 g/ha
Procedure, shortened: as §2

Lolium multiflorum Lam. = test: as above; settings: foliage application, 320 g/ha
Procedure, shortened: as §2

Apera spica-venti. = test: as above; settings: foliage application, 320 g/ha
Procedure, shortened: as §2

Digitaria ciliaris = test: as above; settings: foliage application, 320 g/ha
Procedure, shortened: as §2

Stellaria media = test: as above; settings: foliage application, 320 g/ha
Procedure, shortened: as §2

Abutilon theophrasti = test: as above; settings: foliage application, 320 g/ha
Procedure, shortened: as §2

Veronica persica = test: as above; settings: foliage application, 320 g/ha
Procedure, shortened: as §2

Amaranthus retroflexus = test: as above; settings: foliage application, 320 g/ha
Procedure, shortened: as §2

Setaria viridis = test: as above; settings: foliage application, 320 g/ha
Procedure, shortened: as §2

[2] = tested on: Echinochloa crus-galli var. crus-galli; test: as above; settings: foliage application, 320 g/ha
Procedure, shortened: as §2

Avena fatua = test: as above; settings: foliage application, 320 g/ha
Procedure, shortened: as §2

Zea mays = test: Test Example 4: effect on crop by application to foliage (diluvial soil, plastic box); settings: foliage application, 320 g/ha
Procedure, shortened: as §2

Brassica campestris L. = test: as above; settings: foliage application, 320 g/ha
Procedure, shortened: as §2

Triticum aestivum = test: as above; settings: foliage application, 320 g/ha
Procedure, shortened: as §2

Glycine max = test: as above; settings: foliage application, 320 g/ha
Procedure, shortened: as §2

[3] = tested on: directly sowed Oryza sativa; test: as above; settings: foliage application, 320 g/ha
Procedure, shortened: as §2

[4] = tested on: Beta vulgaris ssp. vulgaris; test: as above; settings: foliage application, 320 g/ha
Procedure, shortened: as §2

Compound | B (Scirpus juncoides) herbicidal ratio grade (Scirpus juncoides) | A (Echinochloa oryzicola Vasing.) herbicidal ratio grade [1] | C (Monochoria vaginalis) herbicidal ratio grade (Monochoria vaginalis) | O (Chenopodium album) herbicidal effect grade (Chenopodium album) | Q (Galium spurium) herbicidal effect grade (Galium spurium) | J (Alopecurus myosuroides) herbicidal effect grade (Alopecurus myosuroides) | K (Lolium multiflorum Lam.) herbicidal effect grade (Lolium multiflorum Lam.) | L (Apera spica-venti.) herbicidal effect grade (Apera spica-venti.) | F (Digitaria ciliaris) herbicidal effect grade (Digitaria ciliaris) | P (Stellaria media) herbicidal effect grade (Stellaria media) | M (Abutilon theophrasti) herbicidal effect grade (Abutilon theophrasti) | R (Veronica persica) herbicidal effect grade (Veronica persica) | N (Amaranthus retroflexus) herbicidal effect grade (Amaranthus retroflexus) | G (Setaria viridis) herbicidal effect grade (Setaria viridis) | H (Echinochloa crus-galli var. crus-galli) herbicidal effect grade [2] | I (Avena fatua) herbicidal effect grade (Avena fatua) | b (Zea mays) effect on crop grade (Zea mays) | g (Brassica campestris L.) effect on crop grade (Brassica campestris L.) | e (Triticum aestivum) effect on crop grade (Triticum aestivum) | c (Glycine max) effect on crop grade (Glycine max) | also measured
Cn1nnnc1NC(=O)c1ccc(C(F)(F)F)n2c(CS(C)(=O)=O)nnc12 [2-034] | 4 (Herbicidal ratio of 70% or more and less than 90%) | 5 (Herbicidal ratio of 90% or more (almost completely withered)) | 4 (Herbicidal ratio of 70% or more and less than 90%) | 5 (Herbicidal ratio of 90% or more (almost completely withered)) | 5 (Herbicidal ratio of 90% or more (almost completely withered)) | 5 (Herbicidal ratio of 90% or more (almost completely withered)) | 5 (Herbicidal ratio of 90% or more (almost completely withered)) | 5 (Herbicidal ratio of 90% or more (almost completely withered)) | 5 (Herbicidal ratio of 90% or more (almost completely withered)) | 5 (Herbicidal ratio of 90% or more (almost completely withered)) | 5 (Herbicidal ratio of 90% or more (almost completely withered)) | 5 (Herbicidal ratio of 90% or more (almost completely withered)) | 5 (Herbicidal ratio of 90% or more (almost completely withered)) | 5 (Herbicidal ratio of 90% or more (almost completely withered)) | 5 (Herbicidal ratio of 90% or more (almost completely withered)) | 5 (Herbicidal ratio of 90% or more (almost completely withered)) | 5 (Herbicidal ratio of 90% or more (almost completely withered)) | 5 (Herbicidal ratio of 90% or more (almost completely withered)) | 5 (Herbicidal ratio of 90% or more (almost completely withered)) | 3 (Herbicidal ratio of 40% or more and less than 70%) | d (directly sowed Oryza sativa) effect on crop grade [3]: 5 (Herbicidal ratio of 90% or more (almost completely withered)); f (Beta vulgaris ssp. vulgaris) effect on crop grade [4]: 5 (Herbicidal ratio of 90% or more (almost completely withered))
Cn1nnnc1NC(=O)c1ccc(C(F)(F)F)n2c(C[S+]([O-])CC(F)(F)F)nnc12 (stereo not shown) [2-035] | 2 (Herbicidal ratio of 20% or more and less than 40%) | 2 (Herbicidal ratio of 20% or more and less than 40%) | 3 (Herbicidal ratio of 40% or more and less than 70%) | 5 (Herbicidal ratio of 90% or more (almost completely withered)) | 2 (Herbicidal ratio of 20% or more and less than 40%) | 3 (Herbicidal ratio of 40% or more and less than 70%) | 4 (Herbicidal ratio of 70% or more and less than 90%) | 4 (Herbicidal ratio of 70% or more and less than 90%) | 5 (Herbicidal ratio of 90% or more (almost completely withered)) | 5 (Herbicidal ratio of 90% or more (almost completely withered)) | 5 (Herbicidal ratio of 90% or more (almost completely withered)) | 5 (Herbicidal ratio of 90% or more (almost completely withered)) | 5 (Herbicidal ratio of 90% or more (almost completely withered)) | 5 (Herbicidal ratio of 90% or more (almost completely withered)) | 5 (Herbicidal ratio of 90% or more (almost completely withered)) | 4 (Herbicidal ratio of 70% or more and less than 90%) | 5 (Herbicidal ratio of 90% or more (almost completely withered)) | 5 (Herbicidal ratio of 90% or more (almost completely withered)) | 4 (Herbicidal ratio of 70% or more and less than 90%) | 2 (Herbicidal ratio of 20% or more and less than 40%) | d (directly sowed Oryza sativa) effect on crop grade [3]: 4 (Herbicidal ratio of 70% or more and less than 90%); f (Beta vulgaris ssp. vulgaris) effect on crop grade [4]: 5 (Herbicidal ratio of 90% or more (almost completely withered))
Cn1nnnc1NC(=O)c1ccc(C(F)(F)F)n2c(S(C)(=O)=O)nnc12 [2-037] | 5 (Herbicidal ratio of 90% or more (almost completely withered)) | 5 (Herbicidal ratio of 90% or more (almost completely withered)) | 5 (Herbicidal ratio of 90% or more (almost completely withered)) | 5 (Herbicidal ratio of 90% or more (almost completely withered)) | 5 (Herbicidal ratio of 90% or more (almost completely withered)) | 5 (Herbicidal ratio of 90% or more (almost completely withered)) | 5 (Herbicidal ratio of 90% or more (almost completely withered)) | 5 (Herbicidal ratio of 90% or more (almost completely withered)) | 5 (Herbicidal ratio of 90% or more (almost completely withered)) | 5 (Herbicidal ratio of 90% or more (almost completely withered)) | 5 (Herbicidal ratio of 90% or more (almost completely withered)) | 5 (Herbicidal ratio of 90% or more (almost completely withered)) | 5 (Herbicidal ratio of 90% or more (almost completely withered)) | 5 (Herbicidal ratio of 90% or more (almost completely withered)) | 5 (Herbicidal ratio of 90% or more (almost completely withered)) | 5 (Herbicidal ratio of 90% or more (almost completely withered)) | 5 (Herbicidal ratio of 90% or more (almost completely withered)) | 5 (Herbicidal ratio of 90% or more (almost completely withered)) | 5 (Herbicidal ratio of 90% or more (almost completely withered)) | 5 (Herbicidal ratio of 90% or more (almost completely withered)) | d (directly sowed Oryza sativa) effect on crop grade [3]: 4 (Herbicidal ratio of 70% or more and less than 90%); f (Beta vulgaris ssp. vulgaris) effect on crop grade [4]: 5 (Herbicidal ratio of 90% or more (almost completely withered))
CCS(=O)(=O)c1nnc2c(C(=O)Nc3nnnn3C)ccc(C(F)(F)F)n12 [2-038] | 4 (Herbicidal ratio of 70% or more and less than 90%) | 5 (Herbicidal ratio of 90% or more (almost completely withered)) | 5 (Herbicidal ratio of 90% or more (almost completely withered)) | 5 (Herbicidal ratio of 90% or more (almost completely withered)) | 5 (Herbicidal ratio of 90% or more (almost completely withered)) | 5 (Herbicidal ratio of 90% or more (almost completely withered)) | 5 (Herbicidal ratio of 90% or more (almost completely withered)) | 5 (Herbicidal ratio of 90% or more (almost completely withered)) | 5 (Herbicidal ratio of 90% or more (almost completely withered)) | 5 (Herbicidal ratio of 90% or more (almost completely withered)) | 5 (Herbicidal ratio of 90% or more (almost completely withered)) | 5 (Herbicidal ratio of 90% or more (almost completely withered)) | 5 (Herbicidal ratio of 90% or more (almost completely withered)) | 5 (Herbicidal ratio of 90% or more (almost completely withered)) | 5 (Herbicidal ratio of 90% or more (almost completely withered)) | 5 (Herbicidal ratio of 90% or more (almost completely withered)) | 5 (Herbicidal ratio of 90% or more (almost completely withered)) | 5 (Herbicidal ratio of 90% or more (almost completely withered)) | 5 (Herbicidal ratio of 90% or more (almost completely withered)) | 5 (Herbicidal ratio of 90% or more (almost completely withered)) | d (directly sowed Oryza sativa) effect on crop grade [3]: 5 (Herbicidal ratio of 90% or more (almost completely withered)); f (Beta vulgaris ssp. vulgaris) effect on crop grade [4]: 5 (Herbicidal ratio of 90% or more (almost completely withered))
